Measured values taken from patent US6352709B1, “Localized use of nitric oxide-adducts to prevent internal tissue damage” (NitroMed, Inc., priority 1993, dated 2002).

Legend:
[1] = system: platelet deposition; details: systemic administration, porcine carotid model; cited from earlier work
[2] = system: platelet deposition; assay: Indium-111-labeled platelet deposition on coated, dried and stored PVC tubing placed as femoral artery shunt; type: in vivo, dog; details: PVC tubing used three days after coating, femoral artery shunt 2 hours
Procedure: The inventors conducted an additional experiment to investigate whether S-nitroso-BSA can be used to coat a surface such as polyvinyl chloride (PVC), and in addition, whether such surfaces can be treated at one time, and used at a later time. In this experiment, three pieces of PVC, 3 mm in internal diameter and 2 cm. in length were soaked in BSA for 4 hours, allowed to dry, and placed in a dark place. Three identical pieces of PVC tubing were soaked in an S-nitroso-BSA solution for 4 hours, dried, and also placed in the dark.
Three days after coating, a pair of PVC tubing pieces, one coated with BSA, and one coated with S-nitroso-BSA, were placed as a shunt in each of the two femoral arteries of a dog. The dog was injected with Indium^111-labeled platelets as previously described. Two hours after the PVC shunts were placed in the circulation with radioactive platelets, they were removed and placed in the Nal gamma counter.

[3] = system: balloon-injured rabbit femoral artery; assay: Neointimal proliferation after balloon injury of femoral artery (morphometry); type: in vivo; details: 14 days after balloon injury, local delivery 15 minutes
Procedure: Femoral arteries were isolated and balloon injured as described below. pS-BSA or pS-NO-BSA were applied in a paired fashion directly into the arterial lumen for 15 minutes and then blood flow was re-established. […] Neointimal proliferation is reported as the absolute neointimal area in FIG. 5A and as a ratio of neointima/media in FIG. 5B in 4-6 segments from each artery. Data are expressed as mean +/− SEM and are derived from 15 vessels in the BSA and S-NO-BSA groups, 11 vessels in the PS-BSA group, 7 vessels in the PS-NO-BSA and SHAM groups, and 5 in the SNP group. *P<0.05, pS-NO-BSA vs. PS-BSA. +/+P<0.05 Sodium nitroprusside vs. pS-BSA for both FIGS. 5A and 5B.
Animal Preparation: All animal preparations were performed within the institutional guidelines of the Brockton/West Roxbury Department of Veteran Affairs Medical Center and Boston University Medical Center, and in accordance with the guiding principles of the American Physiological Society. New Zealand white rabbits (3.5-4.2 kg) of either sex were premedicated with 5 mg/kg intramuscular (IM) xylazine hydrochlolide (Miles Pharmaceuticals, Shawnee Mission, Kans.), and 0.1 mg/kg subcutaneous (SC) atropine sulfate (Lyphomed, Deerfield, Ill.) fifteen minutes prior to the induction of anesthesia. Anesthesia was induced with 40 mg/kg IM ketamine hydrochloride (Fort Dodge Laboratories, Fort Dodge, Ind.) and 5 mg/kg IM acepromazine maleate (Aveco Company, Inc., Fort Dodge, Ind.). Additional doses of ketamine hydrochloride were administered as necessary to maintain anesthesia. For survival studies, 100,000 U penicillin G (Apothecon of Bristol-Myers Squibb, Princeton, N.J.), was administered IM perioperatively. The skin over the femoral arteries was next infiltrated with 1% lidocaine (Astra Pharmaceuticals, Inc., Westborough, Mass.) and the common femoral arteries were exposed from the inguinal ligament to the superficial femoral artery. Arteries were cleared of connective tissue, side branches were ligated, and the superficial femoral artery was suspended with silk ties. A 1.5-to-2.0 cm length of femoral artery was isolated from the circulation proximally and distally with neurosurgical microaneurysm clips. The superficial femoral-artery was cannulated with a 2F Fogarty balloon catheter (American Edwards Laboratories, Santa Ana, Calif.) that was passed into the isolated segment of femoral artery. The balloon was inflated with sufficient air to generate slight resistance and withdrawn three times. A 20 g angiocath was then inserted in the arteriotomy and 1 ml of 25.8 mg/ml PS-NO-BSA or 49.2 mg/ml S-NO-BSA was administered over 15 minutes. The contralateral femoral artery was prepared identically and an appropriate control (25.8 mglml pS-BSA, 49.2 mg/ml BSA or 0.66 mg/ml sodium nitroprusside) was administered. For binding studies, 0.5 ml of [^125I]-labeled nitrosylated albumin or control was administered. Following administration of the agent, the superficial femoral artery was ligated and flow reestablished. Sham-operated animals underwent surgical exposure and sidebranch ligation, but no balloon injury was performed or local delivery administered. The area of balloon injury was marked by surgical staples in the adjacent muscle fascia. For chronic studies, the incision was closed with subcuticular absorbable suture and the animals allowed to recover. For acute studies, blood was allowed to circulate through the treated areas for 15 minutes prior to vessel harvest. In some experiments, a distant control vessel, the right carotid artery, was isolated and harvested without any other manipulation.
A 7F plastic cannula was inserted into the abdominal aorta and the vessels perfused clear with saline followed by fixation at 100 mm Hg pressure with 10% buffered formalin. The vessels were stored in 10% buffered formalin and the samples paraffin-embedded and microtome-sectioned. […]

[4] = system: platelet deposition; assay: Indium-111-labeled platelet deposition on coated 5 FR USC1 catheters in femoral arteries; type: in vivo, dogs; details: 5 FR catheters in dog femoral arteries 2 hours, counted four minutes, average of three
Text: In addition, three pairs of 5 FR USC1 catheters were studied. One catheter was soaked in 5% BSA, while the other catheter was soaked in a mixture of S-nitroso BSA for one hour. The catheters were rinsed with saline and one each was inserted into the right or left femoral arteries of the dogs described above, and left for two hours. Each catheter was flushed with normal saline every one-half hour, but no heparin was given. The catheters were then removed and rinsed with saline. Equal lengths of the catheters were cut from the distal ends and each one was placed in a Nal gamma counter and the radioactivity was counted for four minutes.

[5] = system: platelet deposition; assay: Indium-111-labeled platelet deposition and thrombus on coated dacron grafts in transected carotid arteries; type: in vivo, dogs; details: for average percent increase in graft weight due to thrombus formation on the luminal surface: dacron grafts, dog carotid artery, 2 hours, three grafts
Text: This method requires the removal of platelets from an animal or human subject. The platelets are labeled with a radioactive material such as Indium^111, which emits gamma rays, detectable by a gamma counter placed 3 to 6 inches away from the source of radioactive platelets. The labeled platelets are either reinjected into the animal or human […], or contacted with the artificial surface […]. Platelets will adhere to artificial surfaces or acutely damaged arterial surfaces. Thus, the number of normal platelets and radioactive platelets which stick to the surface is an indication of the thrombogenicity of the surface.
First, the inventors coated dacron grafts and cardiac catheters with S-nitroso-bovine serum albumin (BSA). In three separate experiments, an identical pair of 6 mm. (internal diameter) knitted dacron grafts, 5 cm. in length, were prepared for surgical placement in the transected carotid arteries of three anesthetized dogs. No heparin was given. One graft was soaked in 5% BSA and the other graft was soaked in 5% BSA combined with 0.5 mM nitric oxide (producing S-nitroso-BSA) for one hour prior to insertion, and then rinsed in saline. The grafts were sutured in place with a continuous 6-0 proline suture.
Indium^111-labeled platelets are very useful in detecting platelet accumulation on vascular grafts. Therefore, Indium^111-labeled platelets were prepared according to standard methods described in Heyns “Method for Labeling Platelets with In^111-oxine”. In: Platelet Kinetics and Imaging Vol. II, Editors Heyns et al., CRC Press, 1985; and Sheffel et al., J. Nucl. Med., 20: 524-531, 1979, and injected prior to insertion of the grafts. […] The grafts were then placed in a Nal gamma well counter and counted for four minutes.

[6] = system: damaged coronary artery; assay: Cyclic flow reductions (CFRs) in damaged, stenosed coronary artery; type: in vivo, dogs; details: approximately 0.5 mM NO, given selectively into circumflex coronary artery
[7] = system: clotting on the catheter wall; assay: Clotting on coated 3 FR USC1 catheters implanted in carotid artery; type: in vivo, dogs; details: catheters soaked 12 hours, in dog carotid artery 6-8 hours, no heparin
Procedure: In five anesthetized dogs, both carotid arteries were exposed. Two 3 FR USC1 catheters were prepared for arterial implantation. One catheter was soaked in a 5% BSA solution for 12 hours, while the other was soaked in a 5% BSA solution which also contained 1 mg/ml of sodium nitroprusside. One each of the two coated catheters was placed randomly in the right or left carotid artery of the dog through a small incision sealed with a 6-0 proline suture. The catheters were advanced for 5 cm into the arterial lumen. The dogs were not given any heparin. The catheters were removed 6-8 hours later and examined for clotting on the catheter wall and at the site where the catheter entered the carotid wall.

| Molecule | reduction in platelet deposition [1] [fold] | Indium^111-labeled platelet counts on PVC shunt [2] | neointima/media ratio [3] | neointimal area [3] | Indium^111-labeled platelet counts on catheter [4] | average percent increase in graft weight due to thrombus formation on the luminal surface [5] | passivation of damaged arterial wall compared with sodium nitroprusside [6] | clotting on the catheter wall and entry site [7] | Indium^111-labeled platelet counts on graft ([5]; dacron grafts soaked 1 h, in dog carotid artery 2 hours, average of three grafts) |
| --- | --- | --- | --- | --- | --- | --- | --- | --- | --- |
| [NH-]c1c[n+](N2CCOCC2)no1 [SIN-1] | 2.3 | – | – | – | – | – | – | – | – |
| S-nitroso-bovine serum albumin [S-nitroso-BSA] | – | 97,510 counts/4 minutes | 0.72+/−0.084 | 1.83+/−0.18 ×10^5 μm^2 | 2,850±800 counts | 196% +/−71% | better passivation and the effect lasts longer | – | – |
| bovine serum albumin [BSA, reference compound] | – | 200,870 counts/4 minutes | 1.07+/−0.167 | 2.54+/−0.33 ×10^5 μm^2 | 9,000±1,100 counts | 410% +/−97% | – | considerably more clotting | 654,000 +/−89,000 counts/4 minutes |
